In this assay the target is recombinant CaMKIIδ (Homo sapiens (Human), UniProt Q13557). Put plainly: CaMKIIδ biochemical assay (HTRF). The settings on record: 10 pM CaMKIIδ, 110 nM calmodulin, 12 μM ATP, 1 hour; read-out: CAMKIID-HTRF-384V2 (IC50 - nM). On the procedure: CaMKIIδ Biochemical Assay
The biochemical activity of recombinant CaMKIIδ was measured by monitoring the phosphorylation of a target peptide using Homogenous Time Resolved Fluorescence (HTRF) technology from CisBio Bioassays.
Background: Time-resolved FRET reads energy transfer from a long-lived donor to a nearby acceptor.

What is called IC50 is the concentration at which inhibition is half-maximal. For `CCOC(=O)Nc1cc(C(=O)NC[C@H](C)N(CC)CC)cc(-c2cnn3ccc(-c4cccs4)nc23)n1` [Example 186, (S)-ethyl (4-((2-(diethylamino)propyl)carbamoyl)-6-(5-(thiophen-2-yl)pyrazolo[1,5-a]pyrimidin-3-yl)pyridin-2-yl)carbamate], the IC50 was 0.23 nM. Take `CNc1cnc(-c2cnn3ccc(-c4ccccc4)nc23)cc1C(=O)N1CCCC[C@@H]1CN` [Example 139, (R)-(2-(aminomethyl)piperidin-1-yl)(5-(methylamino)-2-(5-phenylpyrazolo[1,5-a]pyrimidin-3-yl)pyridin-4-yl)methanone]: the concentration for half-maximal inhibition (IC50) was 0.87 nM. For `CC(C)NC(CNC(=O)c1ccnc(-c2cnn3ccc(-c4ccccc4)nc23)c1)C(C)C` (stereo not drawn) [Example 73, N-(2-(isopropylamino)-3-methylbutyl)-2-(5-phenylpyrazolo[1,5-a]pyrimidin-3-yl)isonicotinamide], the IC50 is 31.9 nM.

Take `Nc1cc(C(=O)N2C3CCNCC2CC3)cc(-c2cnn3ccc(-c4ccccc4)nc23)n1` (stereo not drawn) [Example 128, (2-amino-6-(5-phenylpyrazolo[1,5-a]pyrimidin-3-yl)pyridin-4-yl)(-3,9-diazabicyclo[4.2.1]nonan-9-yl)methanone]: the IC50 was 27.8 nM.

With `CCN(CC)[C@@H](C)CNC(=O)c1cc(-c2cnn3ccc(-c4cccs4)nc23)nc(N2CC(C)(N(C)C)C2)c1` [Example 248, (S)—N-(2-(diethylamino)propyl)-2-(3-(dimethylamino)-3-methylazetidin-1-yl)-6-(5-(thiophen-2-yl)pyrazolo[1,5-a]pyrimidin-3-yl)isonicotinamide], the IC50 was found to be 0.21 nM. `CCN(CC)[C@@H](C)CNC(=O)c1cc(-c2cnn3ccc(-c4cccs4)nc23)nc(N2CC[C@H]2C(=O)NCC(F)(F)F)c1` [Example 283, N—((S)-2-(diethylamino)propyl)-2-(5-(thiophen-2-yl)pyrazolo[1,5-a]pyrimidin-3-yl)-6-((S)-2-((2,2,2-trifluoroethyl)carbamoyl)azetidin-1-yl)isonicotinamide]: the IC50 is 1.37 nM. Consider `CCN(CC)[C@@H](C)CNC(=O)c1cc(-c2cnn3ccc(-c4cccs4)nc23)nc(N2CC(C(N)=O)C2)c1` [Example 208, (S)-2-(3-carbamoylazetidin-1-yl)-N-(2-(diethylamino)propyl)-6-(5-(thiophen-2-yl)pyrazolo[1,5-a]pyrimidin-3-yl)isonicotinamide], for which the IC50 was 0.07 nM. Regarding `CCN(CC)[C@@H](C)CNC(=O)c1cc(-c2cnn3ccc(-c4cccs4)nc23)nc(N2CC(C)(OC)C2)c1` [Example 227, (S)—N-(2-(diethylamino)propyl)-2-(3-methoxy-3-methylazetidin-1-yl)-6-(5-(thiophen-2-yl)pyrazolo[1,5-a]pyrimidin-3-yl)isonicotinamide], the IC50 came to 0.07 nM. Regarding `CCN(CC)[C@@H](C)CNC(=O)c1cc(-c2cnn3ccc(-c4cccs4)nc23)nc(N2CC(CO)C2)c1` [Example 216, (S)—N-(2-(diethylamino)propyl)-2-(3-(hydroxymethyl)azetidin-1-yl)-6-(5-(thiophen-2-yl)pyrazolo[1,5-a]pyrimidin-3-yl)isonicotinamide], the IC50 worked out at 0.1 nM. Consider `N[C@H](CNC(=O)c1ccnc(-c2cnn3ccc(-c4ccccc4)nc23)c1)COc1ncccn1` [Example 66, (R)—N-(2-amino-3-(pyrimidin-2-yloxy)propyl)-2-(5-phenylpyrazolo[1,5-a]pyrimidin-3-yl)isonicotinamide], for which the IC50 stood at 205 nM. The value for `CCN(CC)[C@@H](C)CNC(=O)c1cc(-c2cnn3ccc(-c4cccs4)nc23)nc(N2CC[C@@H](C#N)C2)c1` [Example 312, 2-((R)-3-cyanopyrrolidin-1-yl)-N—((S)-2-(diethylamino)propyl)-6-(5-(thiophen-2-yl)pyrazolo[1,5-a]pyrimidin-3-yl)isonicotinamide] was 0.21 nM; that for `NC[C@H]1CCCCN1C(=O)c1cc(Cl)nc(-c2cnn3ccc(-c4ccccc4)nc23)c1` [Example 127, (R)-(2-(aminomethyl)piperidin-1-yl)(2-chloro-6-(5-phenylpyrazolo[1,5-a]pyrimidin-3-yl)pyridin-4-yl)methanone] was 0.22 nM. On to `CCN(CC)[C@@H](C)CNC(=O)c1cc(-c2cnn3ccc(-c4cccs4)nc23)nc(N2CC[C@@H]2COC)c1` [Example 266, N—((S)-2-(diethylamino)propyl)-2-((R)-2-(methoxymethyl)azetidin-1-yl)-6-(5-(thiophen-2-yl)pyrazolo[1,5-a]pyrimidin-3-yl)isonicotinamide], for which the IC50 was found to be 0.46 nM. The value for `CCN(CC)[C@@H](C)CNC(=O)c1cc(-c2cnn3ccc(-c4cccs4)nc23)nc(N2CC[C@H]2C(=O)N(C)OC)c1` [Example 287, N—((S)-2-(diethylamino)propyl)-2-((S)-2-(methoxy(methyl)carbamoyl)azetidin-1-yl)-6-(5-(thiophen-2-yl)pyrazolo[1,5-a]pyrimidin-3-yl)isonicotinamide] was 0.33 nM; that for `CCN(CC)[C@@H](C)CNC(=O)c1cc(-c2cnn3ccc(-c4cccs4)nc23)nc(N2CC[C@H]2C(=O)NCCF)c1` [Example 281, N—((S)-2-(diethylamino)propyl)-2-((S)-2-((2-fluoroethyl)carbamoyl)azetidin-1-yl)-6-(5-(thiophen-2-yl)pyrazolo[1,5-a]pyrimidin-3-yl)isonicotinamide] was 0.46 nM. On to `CCN(CC)[C@@H](C)CNC(=O)c1cc(-c2cnn3ccc(-c4cccs4)nc23)nc(N2CC[C@H]2C(=O)N2CC3CC3C2)c1` (stereo partly drawn) [Example 285, 2-((2S)-2-(3-azabicyclo[3.1.0]hexane-3-carbonyl)azetidin-1-yl)-N—((S)-2-(diethylamino)propyl)-6-(5-(thiophen-2-yl)pyrazolo[1,5-a]pyrimidin-3-yl)isonicotinamide], for which the IC50 was determined as 0.42 nM. As to `CCN(CC)[C@@H](C)CNC(=O)c1cc(-c2ncco2)nc(-c2cnn3ccc(-c4cccs4)nc23)c1` [Example 339, (S)—N-(2-(diethylamino)propyl)-2-(oxazol-2-yl)-6-(5-(thiophen-2-yl)pyrazolo[1,5-a]pyrimidin-3-yl)isonicotinamide], the IC50 came out at 0.35 nM. The value for `CCN(CC(F)F)[C@@H](C)CNC(=O)c1ccnc(-c2cnn3ccc(-c4cccs4)nc23)c1` [Example 15, (S)—N-(2-((2,2-difluoroethyl)(ethyl)amino)propyl)-2-(5-(thiophen-2-yl)pyrazolo[1,5-a]pyrimidin-3-yl)isonicotinamide] was 8.34 nM. Regarding `CCN(CC)[C@@H](C)CNC(=O)c1cc(NC(=O)C2CC2)nc(-c2cnn3ccc(-c4cccs4)nc23)c1` [Example 190, (S)-2-(cyclopropanecarboxamido)-N-(2-(diethylamino)propyl)-6-(5-(thiophen-2-yl)pyrazolo[1,5-a]pyrimidin-3-yl)isonicotinamide], the half-inhibitory concentration (IC50) turned out to be 0.16 nM. For the molecule `O=C(NCC1CCCCN1)c1ccnc(-c2cnn3ccc(-c4cccs4)nc23)c1` (stereo not drawn) [Example 19, N-(piperidin-2-ylmethyl)-2-(5-(thiophen-2-yl)pyrazolo[1,5-a]pyrimidin-3-yl)isonicotinamide], the IC50 was 89.3 nM. Take `CCN(CC)[C@@H](C)CNC(=O)c1cc(-c2cnn3ccc(-c4cccs4)nc23)nc(N2CCC[C@H]2C(=O)NC)c1` [Example 319, N—((S)-2-(diethylamino)propyl)-2-((S)-2-(methylcarbamoyl)pyrrolidin-1-yl)-6-(5-(thiophen-2-yl)pyrazolo[1,5-a]pyrimidin-3-yl)isonicotinamide]: the IC50 came out at 3.02 nM. The value for `CCN(CC)[C@@H](C)CNC(=O)c1cc(-c2cnn3ccc(-c4cccs4)nc23)nc(N2CC(NC(C)=O)C2)c1` [Example 198, (S)-2-(3-acetamidoazetidin-1-yl)-N-(2-(diethylamino)propyl)-6-(5-(thiophen-2-yl)pyrazolo[1,5-a]pyrimidin-3-yl)isonicotinamide] was 0.15 nM.

Regarding `CCN(CC)[C@@H](C)CNC(=O)c1cc(-c2cnn3ccc(-c4cccs4)nc23)nc(N2CC[C@H](C(=O)NC)C2)c1` [Example 310, N—((S)-2-(diethylamino)propyl)-2-((S)-3-(methylcarbamoyl)pyrrolidin-1-yl)-6-(5-(thiophen-2-yl)pyrazolo[1,5-a]pyrimidin-3-yl)isonicotinamide], the IC50 was 0.25 nM. For the molecule `CCCN[C@@H](C)CNC(=O)c1ccnc(-c2cnn3ccc(-c4cccs4)nc23)c1` [Example 23, (S)—N-(2-(propylamino)propyl)-2-(5-(thiophen-2-yl)pyrazolo[1,5-a]pyrimidin-3-yl)isonicotinamide], the 50% inhibitory concentration (IC50) was found to be 14.6 nM. As for `CCN(CC)[C@@H](C)CNC(=O)c1cc(-c2cnn3ccc(-c4cccs4)nc23)nc(N2CC(F)C2)c1` [Example 153, (S)—N-(2-(diethylamino)propyl)-2-(3-fluoroazetidin-1-yl)-6-(5-(thiophen-2-yl)pyrazolo[1,5-a]pyrimidin-3-yl)isonicotinamide], the IC50 is 0.13 nM.

In the case of `CCN(CC)[C@@H](C)CNC(=O)c1cc(-c2cnn3ccc(-c4cccs4)nc23)nc(N2CC(OC(F)F)C2)c1` [Example 144, (S)—N-(2-(diethylamino)propyl)-2-(3-(difluoromethoxy)azetidin-1-yl)-6-(5-(thiophen-2-yl)pyrazolo[1,5-a]pyrimidin-3-yl)isonicotinamide], the IC50 was 0.18 nM.

Consider `CCN(CC)[C@@H](C)CNC(=O)c1cc(-c2cnn3ccc(-c4cccs4)nc23)nc(N2CC(O)(C(F)(F)F)C2)c1` [Example 219, (S)—N-(2-(diethylamino)propyl)-2-(3-hydroxy-3-(trifluoromethyl)azetidin-1-yl)-6-(5-(thiophen-2 yl)pyrazolo[1,5-a]pyrimidin-3-yl)isonicotinamide], for which the IC50 worked out at 0.21 nM.

Source of the values: patent US10100058B2, “Fused heterocyclic compounds as CaM kinase inhibitors” (Gilead Sciences, Inc., priority 2016, dated 2018).
